Activity and Ki data for ten molecules are collected here from ChEMBL document CHEMBL1126486, “Stable isosteres of neurotensin c-terminal pentapeptides derived by modification of the amide function” (Bioorg Med Chem Lett, 1993).

In general, Ki refers to the dissociation constant of the complex between target and ligand, obtained from inhibition or displacement.

Test [1] deals with Mus musculus. Nature of the test: Antinociceptive activity was determined using the phenylquinone writhing assay by […] administration. It is filed as functional. In general terms: An intraperitoneal irritant provokes the stretching counted in writhing tests.
The target of test [2] is Neurotensin receptor type 1 (Rattus norvegicus, UniProt P20789). Put plainly: Neurotensin receptor binding affinity by displacement of [3H]- neurotensin.
Neurotensin receptor type 1, sequence (P20789 whole entry): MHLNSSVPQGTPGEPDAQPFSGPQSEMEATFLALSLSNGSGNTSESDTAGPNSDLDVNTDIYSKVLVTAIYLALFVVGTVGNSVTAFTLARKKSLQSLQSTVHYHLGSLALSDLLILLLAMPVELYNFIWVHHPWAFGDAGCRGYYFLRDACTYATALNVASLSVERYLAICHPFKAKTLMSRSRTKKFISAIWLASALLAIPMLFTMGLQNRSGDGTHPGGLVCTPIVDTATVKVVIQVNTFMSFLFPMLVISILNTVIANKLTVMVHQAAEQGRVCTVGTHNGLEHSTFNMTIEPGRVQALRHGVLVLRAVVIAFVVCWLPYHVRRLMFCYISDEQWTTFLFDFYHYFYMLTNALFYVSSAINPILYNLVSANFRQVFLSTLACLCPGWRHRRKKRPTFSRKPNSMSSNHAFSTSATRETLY
For test [3], the system named is Mus musculus. Nature of the test: Antinociceptive activity was determined using the phenylquinone writhing assay by intravenous administration. It is filed as functional.

Where a SMILES comes first, the peptide text is derived from it. [ ]: non-standard residue; d: D form. The star is where a group is joined. Adamantane1carbonyl = O=C(C12CC3CC(CC(C3)C1)C2)*; Orn = NCCC[C@H](N)C(=O)O; Boc = CC(C)(C)OC(=O)* A value given as a limit tells only on which side of the number the result lay.

`CC[C@H](C)[C@H](NNCC(=O)[C@H](Cc1ccc(O)cc1)NC(=O)[C@@H]1CCCN1C(=O)[C@H](CCCN)NC(=O)OC(C)(C)C)C(=O)N[C@@H](CC(C)C)C(=O)O` showed an Activity with Mus musculus [1] of 29 ug mouse-1. Moreover, the Ki in test [2] was more than 10 µM.
Regarding `CC[C@H](C)[C@H](NC(=O)[C@H](Cc1ccc(O)cc1)NC(=O)[C@@H]1CCCN1C(=O)[C@H](CCCCN)NC(=O)C12CC3CC(CC(C3)C1)C2)C(=O)N[C@@H](CC(C)C)C(=O)O` (Adamantane1carbonyl-KPYIL-OH), the Activity worked out at 0.15 ug mouse-1 in the test with Mus musculus [1] and 2.2 mg/kg in the test on Mus musculus [3]. In test [2], this molecule gave a Ki of 0.117 µM.
The corresponding values for H-KPYIL-OH are 5.9 ug mouse-1, more than 81 mg/kg and 0.688 µM.
`CC[C@H](C)[C@H](NC(=O)[C@H](Cc1ccc(O)cc1)NC(=O)[C@@H]1CCCN1C(=O)[C@H](CCCCN)NC(=O)OC(C)(C)C)C(=O)N[C@@H](CC(C)C)C(=O)O` (Boc-KPYIL-OH): the figures for the Activity in the test with Mus musculus [1] and in the test on Mus musculus [3] were 0.018 ug mouse-1 and 3 mg/kg, respectively. This molecule also returned a Ki in test [2] of 0.063 µM.
Take `CC[C@H](C)[C@H](NNCC(=O)[C@H](Cc1ccc(O)cc1)NC(=O)[C@@H]1CCCN1C(=O)[C@H](CCCCN)NC(=O)C12C[C@H]3C[C@@H](C1)C[C@@H](C2)C3)C(=O)N[C@@H](CC(C)C)C(=O)O`: the Activity in the test on Mus musculus [1] was more than 50 ug mouse-1. This molecule also showed a Ki in test [2] of 5.96 µM.
With `CC[C@H](C)[C@H](NNCC(=O)[C@H](Cc1ccc(O)cc1)NC(=O)[C@@H]1CCCN1NCC(=O)[C@H](CCCCN)NC(=O)C12C[C@H]3C[C@@H](C1)C[C@@H](C2)C3)C(=O)N[C@@H](CC(C)C)C(=O)O`, the Activity with Mus musculus [1] is recorded as more than 50 ug mouse-1. For the same molecule, the Ki in test [2] came out at 3.86 µM.
As for `CC[C@H](C)[C@H](NC(=O)[C@H](Cc1ccc(O)cc1)NC(=O)[C@@H]1CCCN1C(=O)[C@H](CCCN)NC(=O)OC(C)(C)C)C(=O)N[C@@H](CC(C)C)C(=O)O` (Boc-[Orn]PYIL-OH), the Activity in the test on Mus musculus [1] was 0.00097 ug mouse-1; with Mus musculus [3], 0.74 mg/kg. Also, in test [2], the Ki was 0.082 µM.
As to `CC[C@H](C)[C@H](NC(=O)[C@H](Cc1ccc(O)cc1)NNCC(=O)[C@@H]1CCCN1C(=O)[C@H](CCCN)NC(=O)OC(C)(C)C)C(=O)N[C@@H](CC(C)C)C(=O)O`, the figures for the Activity in the test on Mus musculus [1] and in the test on Mus musculus [3] were 0.89 ug mouse-1 and 37 mg/kg, respectively. Affinity in test [2] was put at a Ki of 2.98 µM.
Consider `CC[C@H](C)[C@H](NC(=O)[C@H](Cc1ccc(O)cc1)NNCC(=O)[C@@H]1CCCN1C(=O)[C@H](CCCCN)NC(=O)C12C[C@H]3C[C@@H](C1)C[C@@H](C2)C3)C(=O)N[C@@H](CC(C)C)C(=O)O`, for which the Activity worked out at 4.5 ug mouse-1 with Mus musculus [1] and 20 mg/kg in the test with Mus musculus [3]. Also, affinity in test [2] was put at a Ki of 1.61 µM.
On to `CC[C@H](C)[C@H](NC(=O)[C@H](Cc1ccc(O)cc1)N/C=C/C(=O)[C@@H]1CCCN1C(=O)[C@H](CCCCN)NC(=O)OC(C)(C)C)C(=O)N[C@@H](CC(C)C)C(=O)O`, for which the Activity in the test with Mus musculus [1] is 22 ug mouse-1; in the test on Mus musculus [3], more than 27 mg/kg. For the same molecule, the inhibition constant Ki in test [2] is 1.63 µM.
